Assay [1] concerns T. cruzi infection in BESM cells. On the set-up: method as in PMID 20547819. The note with it: read-out: EC50 against T. cruzi infection in BESM cells; cited from earlier work.
Assay [2] deals with T1, Cruzain (Trypanosoma cruzi, UniProt P25779).
T1 construct: made in house
Nature of the assay: Cruzain enzyme assay (acetate buffer pH 5.5, Z-Phe-Arg-AMC). The assay is classed as biochemical. The note with it: 100 mM sodium acetate pH 5.5, 5 mM DTT. How it is done: Cruzain[27],[28], rhodesain [29], and tbcatB [30] were recombinantly expressed as described previously. TbcatB assays were performed as described previously.[31] Cruzain (2 nM) or rhodesain (3 nM) was incubated with 0.5 to 10 µM inhibitor concentration in 100 mM sodium acetate at pH 5.5, containing 5 mM DTT (buffer A) for 5 min at room temperature. Then buffer A containing Z-Phe-Arg-AMC (Bachem, K M = 1 µM) was added to enzyme inhibitor to give 20 µM substrate concentration in 200 µL, and the increase in fluorescence (excitation at 355 nm and emission at 460 nm) was followed with an automated microtiter plate spectrofluorometer (Molecular Devices, Flex station). Inhibitor stock solutions were prepared at 20 mM in DMSO, and serial dilutions were made in DMSO (0.7% DMSO in assay). Controls were performed using enzyme alone and enzyme with DMSO. IC50 values were determined graphically using inhibitor concentrations in the linear portion of a plot of inhibition versus log[I] […]
Inhibitor dilutions which produce simple exponential progress curves over a wide range of k obs, were used to determine kinetic parameters. The value of k obs, the rate constant for loss of enzyme activity, was determined from an equation for pseudo first order dynamics using Prism 4.0 (GraphPad). When k obs varied linearly with inhibitor concentration, k ass was determined by linear regression analysis. […]

Assay [3] deals with T2, Rhodesain (Trypanosoma brucei rhodesiense, UniProt Q95PM0).
T2 construct: made in house
T2 sequence (Q95PM0 entry or part of it): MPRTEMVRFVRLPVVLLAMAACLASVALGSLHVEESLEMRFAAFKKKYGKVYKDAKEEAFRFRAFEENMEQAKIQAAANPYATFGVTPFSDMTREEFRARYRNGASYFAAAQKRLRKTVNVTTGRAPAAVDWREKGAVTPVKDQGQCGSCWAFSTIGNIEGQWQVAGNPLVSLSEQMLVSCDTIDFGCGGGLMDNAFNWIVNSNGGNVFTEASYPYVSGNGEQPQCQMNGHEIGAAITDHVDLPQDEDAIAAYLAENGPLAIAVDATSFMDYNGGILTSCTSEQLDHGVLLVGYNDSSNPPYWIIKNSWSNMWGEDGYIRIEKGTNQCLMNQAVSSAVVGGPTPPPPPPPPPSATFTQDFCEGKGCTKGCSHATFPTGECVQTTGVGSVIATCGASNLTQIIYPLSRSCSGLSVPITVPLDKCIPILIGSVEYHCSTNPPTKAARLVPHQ
The assay can be described thus: Rhodesain enzyme assay (acetate buffer pH 5.5, Z-Phe-Arg-AMC). Particulars: 100 mM sodium acetate pH 5.5, 5 mM DTT. The assay is classed as biochemical, T. brucei. How it is done:
(§1) Cruzain[27],[28], rhodesain [29], and tbcatB [30] were recombinantly expressed as described previously. TbcatB assays were performed as described previously.[31] Cruzain (2 nM) or rhodesain (3 nM) was incubated with 0.5 to 10 µM inhibitor concentration in 100 mM sodium acetate at pH 5.5, containing 5 mM DTT (buffer A) for 5 min at room temperature. Then buffer A containing Z-Phe-Arg-AMC (Bachem, K M = 1 µM) was added to enzyme inhibitor to give 20 µM substrate concentration in 200 µL, and the increase in fluorescence (excitation at 355 nm and emission at 460 nm) was followed with an automated microtiter plate spectrofluorometer (Molecular Devices, Flex station). Inhibitor stock solutions were prepared at 20 mM in DMSO, and serial dilutions were made in DMSO (0.7% DMSO in assay). Controls were performed using enzyme alone and enzyme with DMSO. IC50 values were determined graphically using inhibitor concentrations in the linear portion of a plot of inhibition versus log[I] (seven concentrations tested with at least two in the linear range).
(§2) Inhibitor dilutions which produce simple exponential progress curves over a wide range of k obs, were used to determine kinetic parameters. The value of k obs, the rate constant for loss of enzyme activity, was determined from an equation for pseudo first order dynamics using Prism 4.0 (GraphPad). When k obs varied linearly with inhibitor concentration, k ass was determined by linear regression analysis. If the variation was hyperbolic, indicating saturation inhibition kinetics, k inact and K i were determined from an equation describing a two-step irreversible inhibitor mechanism [k obs = k inact [I]o/([I]o+Ki* (1+[S]o/K M))] and non-linear regression analysis Prism 4.0.[32] All values were corrected for substrate concentration.

Assay [4] addresses T3, tbcatB (Trypanosoma brucei, UniProt Q6R7Z5).
T3 construct: made in house
T3 sequence (Q6R7Z5 23-340): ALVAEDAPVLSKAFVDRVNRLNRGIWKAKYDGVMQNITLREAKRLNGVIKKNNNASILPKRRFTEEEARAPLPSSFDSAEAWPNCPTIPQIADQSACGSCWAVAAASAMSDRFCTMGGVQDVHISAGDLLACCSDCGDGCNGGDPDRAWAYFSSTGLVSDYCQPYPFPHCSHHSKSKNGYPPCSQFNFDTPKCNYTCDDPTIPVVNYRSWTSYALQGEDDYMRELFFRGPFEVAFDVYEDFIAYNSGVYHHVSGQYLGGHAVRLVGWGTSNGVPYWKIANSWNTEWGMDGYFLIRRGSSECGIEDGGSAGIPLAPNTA
The assay can be described thus: tbcatB enzyme assay. The assay is classed as biochemical. As for the experimental part: as §1, §2

Assay [5] deals with T. cruzi infected J774 macrophages. The assay can be described thus: T. cruzi growth inhibition in infected J774 macrophages (cell survival). It is filed as cell-based, Trypanosoma cruzi CA-I/72. Particulars: 10 µM inhibitor every 48 h until Day 27, experiment terminated on Day 47, untreated control 6 days. How it is done:
CA-I/72 T. cruzi parasites were isolated from a chronic Chagasic patient, cloned, and maintained as previously described.[33]
For growth inhibition studies, J774 macrophages cultured in RPMI-1640 medium with 5% heat inactivated fetal calf serum (FCS) were irradiated (9000 rad) to arrest the cell cycle and plated onto 12-well tissue culture plates for 24 h at 37°C. After infection with 10^5 T. cruzi trypomastigotes per well for 2 hours, monolayers were washed with RPMI medium and treated with the inhibitors at 10 µM in RPMI medium (triplicate wells per inhibitor). Inhibitor stocks were made to 10 mM in DMSO and diluted prior to use. All assays include untreated, K11777-treated, and uninfected macrophage controls. Fresh medium with or without inhibitor was replaced every 48 h and inhibitor efficacy was monitored daily. Survival time was defined as the time before the cell monolayer was destroyed by the infection. Under these culture conditions, T. cruzi completed the intracellular cycle in 6 days in untreated controls. […] Macrophages were subsequently cultured in normal medium for up to 40 days to elucidate if the effective inhibitors were trypanocidal (cure host macrophages) or trypanostatic (delay intracellular cycle of the parasite).

Assay [6] deals with T. cruzi CA-I/72 infected C3H mice. The assay can be described thus: Murine model of acute Chagas' disease. The arrangement: key to Histopathology, Heart / Histopathology, Liver / Histopathology, Spleen / Histopathology, Colon: I/I: Inflammation and infiltration; +10A: Numerous nests of T. cruzi amastigotes; +A: 1-3 nests of T. cruzi amastigotes; Negative. It is filed as in vivo, mouse. As for the experimental part:
Three to four week old female C3H mice weighing ca. 20 g were used. The animals were separated into five lots of 5 mice per cage and infected with 10^6 tissue-culture derived trypomastigotes of the myotropic T. cruzi CA-I/72 cloned stock. The mice were treated with 100 mg compound/kg of body weight in 100 µL of solution (30–40% DMSO: 60–70% sterile distilled water) intraperitoneally twice a day. Treatment was initiated 12 h post infection and continued until cure, death of the animals, or for a total of 20 days. […] Parasitemias was determined at the end of the experiment when animals were euthanized. Tissues processed for histopathology include skeletal muscle, heart, liver, spleen, and colon. Blood (5–50 µL) was used for hemocultures. […] Compounds were considered toxic if life expectancy is lower than untreated controls (negative values). If necessary, PCR of blood and tissues was performed to confirm effectiveness of treatment and/or cure of treated animals. Results were expressed as survival (days) of treated animals.

Assay [7] concerns the target T4, Cathepsin C (Homo sapiens, UniProt P53634).
T4 construct: Reaction Biology Corp (screening service)
Nature of the assay: Protease inhibition profiling (Reaction Biology Corp): Cathepsin C. It is filed as biochemical.

Assay [8] concerns the target T5, Cathepsin K (Homo sapiens, UniProt P43235).
T5 construct: Reaction Biology Corp (screening service)
T5 sequence (P43235 115-329): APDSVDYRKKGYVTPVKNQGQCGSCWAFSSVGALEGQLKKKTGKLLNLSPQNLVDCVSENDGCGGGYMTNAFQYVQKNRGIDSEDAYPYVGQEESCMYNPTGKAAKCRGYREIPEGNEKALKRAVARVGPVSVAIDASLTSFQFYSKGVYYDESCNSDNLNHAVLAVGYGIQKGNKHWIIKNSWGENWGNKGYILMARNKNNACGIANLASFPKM
Nature of the assay: Protease inhibition profiling (Reaction Biology Corp): Cathepsin K. It is filed as biochemical.

The target of assay [9] is T6, Cathepsin S (Homo sapiens, UniProt P25774).
T6 construct: Reaction Biology Corp (screening service)
T6 sequence (P25774 115-331, species assumed): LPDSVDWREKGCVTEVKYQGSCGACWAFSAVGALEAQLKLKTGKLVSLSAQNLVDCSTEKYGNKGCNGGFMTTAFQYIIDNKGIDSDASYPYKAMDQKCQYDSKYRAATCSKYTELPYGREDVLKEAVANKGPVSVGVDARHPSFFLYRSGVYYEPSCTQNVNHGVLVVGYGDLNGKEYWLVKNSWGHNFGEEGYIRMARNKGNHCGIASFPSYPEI
The assay can be described thus: Protease inhibition profiling (Reaction Biology Corp): Cathepsin S. The assay is classed as biochemical.

The target in assay [10] is T7, Cathepsin V (Homo sapiens, UniProt O60911).
T7 construct: Reaction Biology Corp (screening service)
T7 sequence (O60911 114-334, species assumed): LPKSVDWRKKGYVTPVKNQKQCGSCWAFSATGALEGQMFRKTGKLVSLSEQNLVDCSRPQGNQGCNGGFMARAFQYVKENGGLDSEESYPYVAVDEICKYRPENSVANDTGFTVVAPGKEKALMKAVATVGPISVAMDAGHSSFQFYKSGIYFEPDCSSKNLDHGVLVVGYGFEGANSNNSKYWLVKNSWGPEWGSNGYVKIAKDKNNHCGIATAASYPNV
The assay can be described thus: Protease inhibition profiling (Reaction Biology Corp): Cathepsin V. The assay is classed as biochemical.

For assay [11], the target named is T8, Papain (Carica papaya, UniProt P00784).
T8 construct: Reaction Biology Corp (screening service)
T8 sequence (P00784 134-345): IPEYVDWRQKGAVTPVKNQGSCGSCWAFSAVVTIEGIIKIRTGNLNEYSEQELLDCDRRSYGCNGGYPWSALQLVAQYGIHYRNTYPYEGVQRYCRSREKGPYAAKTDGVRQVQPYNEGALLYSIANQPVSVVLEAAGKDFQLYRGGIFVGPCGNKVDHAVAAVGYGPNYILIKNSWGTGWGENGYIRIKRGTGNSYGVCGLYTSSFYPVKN
Nature of the assay: Protease inhibition profiling (Reaction Biology Corp): Papain. The assay is classed as biochemical.

Setting [12] is: individual infected mice, 100 mg/kg ip.
Setting [13] is: individual infected mice, 100 mg/kg ip, 100 mg/kg.

pEC50, pIC50: −log10 of the molar value. Entries after “also recorded” stand apart in the source; their conditions may differ.

T4 sequence (P53634 25-463, species assumed): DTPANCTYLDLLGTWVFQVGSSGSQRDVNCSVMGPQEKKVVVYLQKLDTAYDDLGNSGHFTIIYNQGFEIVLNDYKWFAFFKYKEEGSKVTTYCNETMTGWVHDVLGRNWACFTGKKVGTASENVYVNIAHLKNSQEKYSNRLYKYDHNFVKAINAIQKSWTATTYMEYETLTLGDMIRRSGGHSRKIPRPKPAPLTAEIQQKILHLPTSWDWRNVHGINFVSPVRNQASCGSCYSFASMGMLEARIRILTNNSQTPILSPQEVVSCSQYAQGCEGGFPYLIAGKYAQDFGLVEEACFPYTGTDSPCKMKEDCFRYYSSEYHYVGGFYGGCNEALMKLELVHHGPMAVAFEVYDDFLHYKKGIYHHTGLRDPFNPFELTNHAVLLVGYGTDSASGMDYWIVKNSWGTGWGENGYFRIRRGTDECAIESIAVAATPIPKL
T1 sequence (P25779 123-337 limits assumed): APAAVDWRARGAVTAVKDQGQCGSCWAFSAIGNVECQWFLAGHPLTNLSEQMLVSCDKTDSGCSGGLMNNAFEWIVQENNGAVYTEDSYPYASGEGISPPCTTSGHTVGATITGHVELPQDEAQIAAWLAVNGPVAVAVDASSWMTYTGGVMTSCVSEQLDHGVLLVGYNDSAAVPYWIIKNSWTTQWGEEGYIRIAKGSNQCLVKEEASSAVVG

With `CC[C@@H]([C@H](C)O)n1ncn(-c2ccc(N3CCN(c4ccc(OC[C@@H]5CO[C@@](Cn6cncn6)(c6ccc(F)cc6F)C5)cc4)CC3)cc2)c1=O` [posaconazole], the pEC50 in assay [1] is 6.70.

For `CN1CCN(C(=O)N[C@@H](Cc2ccccc2)C(=O)N[C@H](/C=C/S(=O)(=O)c2ccccc2)CCc2ccccc2)CC1` [K11777], the “k obs/[I] at 1 µM, Cruzain” value in [2] is on record as 108,000±4,200 s^-1 M^-1. Moreover, the “k obs/[I] at 1 µM, Rhodesain” value in [3] is on record as 48,000±10,200 s^-1 M^-1. In assay [4], the “inhibition of tbcatB (in words)” value is listed as “weak inhibitors” and the tbcatB k ass came to 500 ± 100 M⁻¹ s⁻¹. Besides, in assay [4] (read-out: tbcatB % inhibition at 1 µM), the inhibition at 1 µM stood at 48%. Moreover, the “T. cruzi infected cell survival” value in assay [5] was 47 days. Besides, the “T. cruzi infected mouse survival” value in assay [6] (100 mg inhibitor/kg body weight in two daily doses, intraperitoneally, untreated control 21 days) is 110 days. In assay [6] (10^6 trypomastigotes CA-I/72, untreated controls died within 21–60 days), the “survival of the acute infection” value was “survived the acute infection”. Moreover, in [6] (setting [12]), the “Histopathology, Colon” value is “N”; the “Histopathology, Liver” value is given as “N”; the “Histopathology, Spleen” value is recorded as “N”. Also, in [6] (setting [13]), the “Histopathology, Heart” value was “Mild i/i and N”; the “Histopathology, Sk. muscle” value was “+AIntense i/i; also recorded: Moderate i/i; also recorded: +AModerate i/i; also recorded: Intense i/i”. Besides, in assay [7], the pIC50 is 9.40. This compound gave a pIC50 in [8] of 7.60. Besides, the pIC50 in [9] is 9.22. In assay [10], this compound gave a pIC50 of 8.92. The compound also showed a pIC50 in [11] of 9.40. Also, the pEC50 in [1] is 5.38.

The pEC50 is the EC50 on a negative log10 scale, so that one unit is a factor of ten. What is called inhibition is the share of the control response that was lost under treatment. As usually defined, the pIC50 is the IC50 on a negative log10 scale, so that one unit is a factor of ten.

These data come from PMC2939063, “In Vitro and In Vivo Studies of the Trypanocidal Properties of WRR-483 against Trypanosoma cruzi” (PLoS Neglected Tropical Diseases, 2010).
